These compounds were tested against T1, chymotrypsin-like activity of the 20S proteasome (Homo sapiens, UniProt P20618+P28074) (assay: Inhibition of the chymotrypsin-like activity of the 20S proteasome (Suc-LLVY-AMC hydrolysis)). Conditions: purified human placenta 20S proteasome, Suc-LLVY-AMC substrate, read-out: IC50 [μM] (results of one or two experiments).
T1 construct: purified human placenta 20S proteasome; tissue Diabetes Forschungsinstitut, Düsseldorf, Germany; host or cells: human placenta
Assay type: biochemical
Excerpt: It is based on the hydrolysis of the fluorogenic peptide Suc-LLVY-AMC (Succinyl-leucine-leucine-vatine-tyrosine-7-amino-4-methyl-coumarin), which is cleaved exclusively at the Y-AMC bond by the 20S proteasome. Hydrolysis of this peptide is accompanied by an increase in fluorescence intensity (λex (excitation wavelength): 355 nm; μem (emission wavelength): 460 nm) due to release of the […] that accompanies diffusion apart of the hydrolysis product Suc-LLVY.
2 μl of a 1 mM solution of a test compound in DMSO (dimethylsulfoxide, 20 μM final concentration in the well) are preincubated for 60 min at room temperature in black 96-well microtiter plates together with a mixture of 1 μl purified human placenta 20S proteasome (Diabetes Forschungsinstitut, DÜsseldorf, Germany; about 100 ng proteasome, depending on the proteasome preparation) and 47 μl buffer-Ca (5 mM CaCl2, 20 mM Tris/HCl (Tris-(hydroxymethyl)-amino-methane hydrochloride) pH 8.0). 3 μl of a 2.67 mM solution of Suc-LLVY-AMC (Bachem, Switzerland) in DMSO (80 μM final concentration in the well) and 47 μl buffer-Ca are mixed and added. The resulting mixture is incubated for 3-24 h at 37° C. If desired, proteolysis of the substrate can be stopped by addition of 50 μl stop solution (100 mM monochloroacetic acid, 130 mM NaOH, 100 mM acetic acid, pH=4.3). The fluorescence is monitored with a FLUOROSKAN ASCENT™ microtiter plate reader.
For each measurement series two control experiments are carried out: • 1.) 0% value: 2 μl DMSO are used in the above described assay instead of 2 μl of a 1 mM solution of a test compound in DMSO and 48 μl buffer-Ca instead of a mixture of 47 μl buffer-Ca and 1 μl purified proteasome. • 2.) 100% value: in the above described assay 2 μl DMSO are used instead of 2 μl of a 1 mM solution of the test compound in DMSO. Calculation [formula]
The IC50 value is defined as that concentration of a compound at which the remaining activity is 50% compared to the […].

Q: Which IC50 does the source give for `COc1ccc(C[C@H](Nc2cccc(-c3ccccc3)c2)C(=O)N[C@@H](C)C(=O)N[C@@H](CC(C)C)B2O[C@@H]3C[C@@H]4C[C@@H](C4(C)C)[C@]3(C)O2)cc1` [Example 41, (S)-2-(Biphenyl-3-ylamino)-3-(4-methoxy-phenyl)-N-{(S)-1-[(R)-3-methyl-1-((1S,2S,6R,8S)-2,9,9-trimethyl-3,5-dioxa-4-bora-tricyclo[6.1.1.0^2,6]dec-4-yl)-butylcarbamoyl]-ethyl}-propionamide] here?
A: 0.0012 µM

Q: How did the IC50 turn out when `COc1ccc(C[C@H](Nc2cccc(-c3ccccc3)c2)C(=O)N[C@@H](C)C(=O)N[C@@H](CC(C)C)B(O)O)cc1` [Example 42, (R)-1-{(S)-2-[(S)-2-(Biphenyl-3-ylamino)-3-(4-methoxy-phenyl)-propionylamino]-propionylamino}-3-methyl-butylboronic acid] was run?
A: 0.0019 µM

Q: Which IC50 does the source give for `COc1ccc(C[C@H](Nc2cccc(-c3ccccc3)c2)C(=O)N[C@@H](C)C(=O)N[C@@H](CC(C)C)B2O[C@@H]3C[C@@H]4C[C@@H](C4(C)C)[C@]3(C)O2)cc1OC` [Example 43, (S)-2-(Biphenyl-3-ylamino)-3-(3,4-dimethoxy-phenyl)-N-{(S)-1-[(R)3-methyl-1-((1S,2S,6R,8S)-2,9,9-trimethyl-3,5-dioxa-4-bora-tricyclo[6.1.1.0^2,6]dec-4-yl)-butylcarbamoyl]-ethyl}-propionamide] here?
A: 0.0018 µM

Q: How did the IC50 turn out when `COc1ccc(C[C@H](Nc2cccc(-c3ccccc3)c2)C(=O)N[C@@H](C)C(=O)N[C@@H](CC(C)C)B(O)O)cc1OC` [Example 44, (R)-1-{(S)-2-[(S)-2-(Biphenyl-3-ylamino)-3-(3,4-dimethoxy-phenyl)-propionylamino]-propionylamino}-3-methyl-butylboronic acid] was run?
A: 0.001 µM

Q: With `COc1cc(C[C@H](Nc2cccc(C(C)C)c2)C(=O)N[C@@H](C)C(=O)N[C@@H](CC(C)C)B2O[C@@H]3C[C@@H]4C[C@@H](C4(C)C)[C@]3(C)O2)cc(OC)c1OC` [Example 45, (S)-2-(3-Isopropyl-phenylamino)-N-{(S)-1-[(R)-3-methyl-1-((1S,2S,6R,8S)-2,9,9-trimethyl-3,5-dioxa-4-bora-tricyclo[6.1.1.0^2,6]dec-4-yl)-butylcarbamoyl]-ethyl}-3-(3,4,5-trimethoxy-phenyl)-propionamide] as the compound, how does the IC50 read?
A: 0.0013 µM

Q: With `COc1ccc(C[C@H](NC(=O)CCc2ccccc2)C(=O)N[C@@H](C)C(=O)N[C@@H](CC(C)C)B2O[C@@H]3C[C@@H]4C[C@@H](C4(C)C)[C@]3(C)O2)c(OC)c1OC` [Example 47, (S)-N-{(S)-1-[(R)-3-Methyl-1-((1S,2S,6R,8S)-2,9,9-trimethyl-3,5-dioxa-4-bora-tricyclo[6.1.1.0^2,6]dec-4-yl)-butylcarbamoyl]-ethyl}-2-(3-phenyl-propionylamino)-3-(2.3.4 trimethoxy-phenyl)-propionamide] as the compound, how does the IC50 read?
A: 0.0008 µM

Q: For `COc1ccc(C[C@H](NC(=O)CCc2ccccc2)C(=O)N[C@@H](C)C(=O)N[C@@H](CC(C)C)B(O)O)c(OC)c1OC` [Example 48, (R)-3-Methyl-1-{(S)-2-[(S)-2-(3-phenyl-propionylamino)-3-(2,3,4-trimethoxyphenyl)-propionylamino]-propionylamino}-butylboronic acid], which IC50 is on record?
A: 0.0007 µM

Q: How did the IC50 turn out when `COc1cc(C[C@H](Nc2cccc(-c3ccccc3)c2)C(=O)N[C@H](C(=O)N[C@@H](Cc2ccccc2)B(O)O)C(C)C)cc(OC)c1OC` [Example 50, (R)-1-{(S)-2-[(S)-2-(Biphenyl-3-ylamino)-3-(3,4,5-trimethoxy-phenyl)-propionylamino]-3-methyl-butyrylamino}-2-phenyl-ethylboronic acid] was run?
A: 0.0023 µM

Q: `COc1ccc(C[C@H](Nc2cccc(-c3ccccc3)c2)C(=O)N[C@H](C(=O)N[C@@H](Cc2ccccc2)B2O[C@@H]3C[C@@H]4C[C@@H](C4(C)C)[C@]3(C)O2)C(C)C)cc1` [Example 51, (S)-2-[(S)-2-(Biphenyl-3-ylamino)-3-(4-methoxy-phenyl)-propionylamino]-3-methyl-N-[(R)-2-phenyl-1-((1S,2S,6R,8S)-2,9,9-trimethyl-3,5-dioxa-4-bora-tricyclo[6.1.1.0^2,6]dec-4-yl)-ethyl]-butyramide] was tested. Which IC50 did it give?
A: 0.0043 µM

Q: `COc1ccc(C[C@H](Nc2cccc(-c3ccccc3)c2)C(=O)N[C@H](C(=O)N[C@@H](Cc2ccccc2)B(O)O)C(C)C)cc1` [Example 52, (R)-1-{(S)-2-[(S)-2-(Biphenyl-3-ylamino)-3-(4-methoxy-phenyl)-propionylamino]-3-methyl-butyrylamino}-2-phenyl-ethylboronic acid] was tested. Which IC50 did it give?
A: 0.005 µM

Q: With “(R)-1-{(S)-2-[(S)-2-(3-Isopropyl-phenylamino)-3-(3,4,5-trimethoxy-phenyl)-propionylamino]-propionylamino}-3-methyl-butylboronic acid [Example 46]” as the compound, how does the IC50 read?
A: 0.0019 µM

Q: How did the IC50 turn out when “(R)-1-{(S)-2-[(S)-2-(Biphenyl-3-ylamino)-3-(3,4,5-trimethoxy-phenyl)-propionylamino]-4-methyl-pentanoylamino}-3-methyl-butylboronic acid [Example 34]” was run?
A: 0.0013 µM
